Reference: patent publication US7425534B2, “Compositions and methods for modulating muscle cell and tissue contractility” (The Trustees of the University of Pennsylvania, priority 2000, dated 2008)

System: rat aortic rings
Test: Phenylepherine (PE)-induced contraction of isolated rat aortic rings (isometric tension)
Format: cell-based
Description: Male Sprague Dawley rats (250-275 g) were sacrificed by exsanguination and thoracic aortae were removed with care to avoid damage to the endothelium, dissected free of fat and connective tissue, and cut into transverse rings, each 5 mm in length (Kyong et al., 1992, Br. J. Pharmacol. 107:983-990; Yohtaro et al., 1987, Eur. J. Pharmacol. 131:75-78; Chang et al., 1992, Br. J. Pharmacol. 107:983-990; Oyama et al., 1986, Eur. J. Pharmacol. 132:75-78). The tissues were maintained in an oxygenated (95% O2; 5% CO2) solution of Krebs-Henseliet (KH) buffer (144 millimolar NaCl, 5.9 millimolar KCl, 1.6 millimolar CaCl2, 1.2 millimolar MgSO4, 1.2 millimolar KH2PO4, 25 millimolar NaHCO3, and 11.1 millimolar D-glucose). The aortic rings were mounted to record isometric tension in a 10 milliliter bath containing KH solution under continuous aeration. The aortic rings were equilibrated for 1.5 hours at 37° C. and maintained under a resting tension of 2 g throughout the experiment. Each aortic ring was then contracted by adding phenylepherine (PE) in stepwise increments raising the concentration of PE from 10^−10 molar to 10^−5 molar. […] In every experiment, aortic rings exposed to KH buffer alone were analyzed in parallel as controls. Isometric tension was evaluated using a force displacement transducer and recorded online using a computerized system (ExperimentiaAE, Budapest, Hungary).

## GFD: growth factor domain of uPA which binds to uPAR, SEQ ID NO:2 (SNELHQVPSNCDCLNGGTCVSNKYFSNIHWCNCPKKFGGQHCEIDKS; listed as Homo sapiens)
10 nM uPA species (FIGS. 5A, 5B; GFD 10 nanomolar)
  Effect upon PE-induced aortic contraction / vasoconstriction: did not enhance contractility

## CNC[C@H](O)c1cccc(O)c1 [PE, phenylepherine, reference compound]
PE alone, K-H buffer, no uPA species
  EC50: 0.029 µM

## ATF: amino terminal fragment of urokinase, amino acids 1-135, growth factor domain plus kringle, SEQ ID NO:4
10 nM ATF + 10 nM suPAR (FIG. 3)
  Contractility enhancing activity in the presence of suPAR: abolished
Compare FIGS. 2 and 3
  Potency at enhancing vascular smooth muscle tissue contractility relative to tcuPA: 6 fold

B1: uPA kringle: kringle domain of uPA, amino acids 47-135, SEQ ID NO:1 (protein, listed as Homo sapiens)
chain: KTCYEGNGHFYRGKASTDTMGRPCLPWNSATVLQQTYHAHRSDALQLGLGKHNYCRNPDNRRRPWCYVQVGLKPLVQECMVHDCADGK
uPA kringle without PE effect (FIG. 4)
  Direct induction of vasoconstriction: did not induce vasoconstriction directly
